Activity calls are given as the source filed them.
Experiments:
[1] = target: Melanin-concentrating hormone receptor 1 (Homo sapiens, UniProt Q99705); test: Fluorescence-based counterscreen for antagonists of the G-protein coupled receptor 7 (GPR7): cell-based high throughput dose response assay to identify antagonists of the melanin-concentrating hormone receptor 1 (MCHR1).; type: functional
[2] = target: DNA dC->dU-editing enzyme APOBEC-3A (Homo sapiens, UniProt P31941); test: Dose Response confirmation of small molecule APOBEC3A DNA Deaminase Inhibitors via a fluorescence-based single-stranded DNA deaminase assay. [Related pubchem assays (depositor defined):AID493011, AID493024]; type: functional
Chain of DNA dC->dU-editing enzyme APOBEC-3A (P31941 whole entry): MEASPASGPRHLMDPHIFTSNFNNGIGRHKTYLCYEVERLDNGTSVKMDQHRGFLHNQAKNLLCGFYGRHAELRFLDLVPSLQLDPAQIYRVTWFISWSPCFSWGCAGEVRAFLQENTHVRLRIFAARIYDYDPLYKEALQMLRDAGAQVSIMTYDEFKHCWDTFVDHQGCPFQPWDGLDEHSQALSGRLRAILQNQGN

[3] = target: DNA dC->dU-editing enzyme APOBEC-3G (Homo sapiens, UniProt Q9HC16); type: functional;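 note: Dose-response counterscreen measuring inhibition of APOBEC3G DNA deaminase activity, run while confirming APOBEC3A inhibitors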
Chain of DNA dC->dU-editing enzyme APOBEC-3G (Q9HC16 whole entry): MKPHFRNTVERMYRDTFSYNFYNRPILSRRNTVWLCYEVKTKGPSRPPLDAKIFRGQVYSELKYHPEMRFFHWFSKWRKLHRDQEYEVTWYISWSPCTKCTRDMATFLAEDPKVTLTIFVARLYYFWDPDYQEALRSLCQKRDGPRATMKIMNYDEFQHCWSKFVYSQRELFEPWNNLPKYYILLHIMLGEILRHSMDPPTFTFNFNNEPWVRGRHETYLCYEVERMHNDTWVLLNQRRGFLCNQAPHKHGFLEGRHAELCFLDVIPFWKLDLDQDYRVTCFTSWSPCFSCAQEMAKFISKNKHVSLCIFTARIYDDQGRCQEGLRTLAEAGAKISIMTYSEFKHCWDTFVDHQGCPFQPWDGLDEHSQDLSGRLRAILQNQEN

[4] = target: Neuropeptides B/W receptor type 1 (Homo sapiens, UniProt P48145); test: Fluorescence-based dose response cell-based high throughput screening assay to identify antagonists of the G-protein coupled receptor 7 (GPR7). [Related pubchem assays: 1952 (Screening assay (GPR7 antagonists).), 1880 (Summary AID.)]; type: functional
Chain of Neuropeptides B/W receptor type 1 (P48145 whole entry): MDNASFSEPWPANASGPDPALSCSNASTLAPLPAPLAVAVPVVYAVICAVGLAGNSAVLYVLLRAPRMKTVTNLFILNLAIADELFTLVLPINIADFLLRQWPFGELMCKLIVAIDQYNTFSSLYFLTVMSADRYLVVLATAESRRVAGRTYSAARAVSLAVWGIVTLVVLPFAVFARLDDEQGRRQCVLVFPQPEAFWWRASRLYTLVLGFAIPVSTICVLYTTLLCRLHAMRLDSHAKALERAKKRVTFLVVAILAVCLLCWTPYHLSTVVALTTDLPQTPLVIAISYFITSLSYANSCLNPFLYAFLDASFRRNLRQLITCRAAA

[5] = target: Lysosomal acid glucosylceramidase (Homo sapiens, UniProt P04062); test: Dose response cell-based high throughput screening assay to identify enhancers of beta-glucosidase activity. [Related pubchem assays: 784 ]; type: functional
Chain of Lysosomal acid glucosylceramidase (P04062 whole entry): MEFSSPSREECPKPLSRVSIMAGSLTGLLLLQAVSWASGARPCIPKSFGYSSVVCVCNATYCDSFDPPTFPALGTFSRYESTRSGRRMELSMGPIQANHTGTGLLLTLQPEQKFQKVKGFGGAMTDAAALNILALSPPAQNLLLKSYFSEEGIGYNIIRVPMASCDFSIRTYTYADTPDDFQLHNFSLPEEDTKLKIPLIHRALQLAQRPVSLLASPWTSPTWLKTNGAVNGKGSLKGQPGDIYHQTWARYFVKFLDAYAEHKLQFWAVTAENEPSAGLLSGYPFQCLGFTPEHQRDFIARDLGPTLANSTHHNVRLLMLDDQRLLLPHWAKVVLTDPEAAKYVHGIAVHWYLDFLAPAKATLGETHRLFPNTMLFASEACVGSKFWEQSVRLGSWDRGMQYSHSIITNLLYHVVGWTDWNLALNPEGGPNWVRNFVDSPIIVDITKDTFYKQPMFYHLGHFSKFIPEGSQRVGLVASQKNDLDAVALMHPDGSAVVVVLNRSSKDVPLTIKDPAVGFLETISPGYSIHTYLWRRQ

[6] = test system: Streptococcus sp. 'group A'; test: Streptococcus pyogenes SK(-)GAS viability under kanamycin – luminescence, BacTiterGlo, confirmation, counter-screen for streptokinase expression inhibitor project, dose response (AID 1900); type: functional, organism-based
HEK293 = test: Fluorescence-based counterscreen for potentiators or agonists of NPY-Y1: cell-based high-throughput dose response assay for inhibitors of cyclic nucleotide gated ion channel (CNGC) activity. In this assay, the parental HEK293 cell line transfected with a cyclic-nucleotide gated ion channel (CNGC)-based cAMP sensor is used to measure inhibition of isoproterenol-induced CNGC …; type: functional; conditions: Homo sapiens
Streptococcus = test: GAS UMAA2166 growth inhibition – luminescence, BacTiterGlo, counter-screen for streptokinase expression inhibitor project, dose response (AID 1915); type: functional, organism-based;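 note: potency for reduction of bacterial viability or growth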
[7] = target: Serine/threonine-protein phosphatase (Homo sapiens, UniProt Q9BPW0); test: Counterscreen for inhibitors of PP1: fluorescence-based biochemical high throughput dose response assay to identify inhibitors of Protein Phosphatase 5 (PP5). [Related pubchem assays: 2034 (Summary (PP5 inhibitors)), 1987 (PP5 inhibitors in singlate), 2235 (PP1 inhibitors in singlate)]
Chain of Serine/threonine-protein phosphatase (Q9BPW0 whole entry): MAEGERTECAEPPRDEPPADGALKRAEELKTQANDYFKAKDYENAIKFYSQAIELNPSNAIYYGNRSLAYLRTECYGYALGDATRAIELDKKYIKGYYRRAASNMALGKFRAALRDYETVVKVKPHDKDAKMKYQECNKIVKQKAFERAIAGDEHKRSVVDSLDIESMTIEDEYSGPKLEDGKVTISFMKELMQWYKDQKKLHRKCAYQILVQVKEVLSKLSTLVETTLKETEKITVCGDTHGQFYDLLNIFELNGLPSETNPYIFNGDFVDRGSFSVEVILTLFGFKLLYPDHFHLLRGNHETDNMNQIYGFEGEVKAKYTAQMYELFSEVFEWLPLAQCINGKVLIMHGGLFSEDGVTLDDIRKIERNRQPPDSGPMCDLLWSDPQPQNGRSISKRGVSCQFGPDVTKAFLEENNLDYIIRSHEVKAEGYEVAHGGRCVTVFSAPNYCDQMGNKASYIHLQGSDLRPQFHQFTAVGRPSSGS

[8] = target: Serine/threonine-protein phosphatase PP1-alpha catalytic subunit (Homo sapiens, UniProt P62136); test: inhibition of protein phosphatase 1 activity – biochemical, fluorescence, dose response (AID 2403);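 note: phosphatase turnover of OMFP into fluorescent 3-O-methylfluorescein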
Chain of Serine/threonine-protein phosphatase PP1-alpha catalytic subunit (P62136 whole entry): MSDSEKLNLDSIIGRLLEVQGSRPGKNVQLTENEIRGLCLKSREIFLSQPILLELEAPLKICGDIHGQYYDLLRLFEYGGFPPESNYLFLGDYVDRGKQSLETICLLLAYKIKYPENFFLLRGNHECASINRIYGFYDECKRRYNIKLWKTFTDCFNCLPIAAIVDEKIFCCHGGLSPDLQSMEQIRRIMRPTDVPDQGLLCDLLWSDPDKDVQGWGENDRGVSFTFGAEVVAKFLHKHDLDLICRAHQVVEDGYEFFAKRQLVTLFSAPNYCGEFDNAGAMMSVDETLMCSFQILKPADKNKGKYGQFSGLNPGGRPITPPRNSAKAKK

Protein Rev = Protein Rev (Human immunodeficiency virus type 1 group M subtype B (isolate WMJ22)(HIV-1), UniProt P05866); test: inhibitors of Rev protein–RRE RNA complex – biochemical, protein-RNA interaction, dose response (AID 842); design: species or system Human immunodeficiency virus 1
Chain of Protein Rev (P05866 whole entry): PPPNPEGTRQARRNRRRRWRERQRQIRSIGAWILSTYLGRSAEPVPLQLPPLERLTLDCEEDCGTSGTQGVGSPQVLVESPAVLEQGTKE

[9] = Counterscreen for IDE inhibitors: Luminescence-based cell-based high throughput dose response assay to identify compounds that are cytotoxic to HEK cells. [Related pubchem assays: 434962 (Primary screen (IDE inhibitors in singlicate)), 449730 (Counterscreen (Cytotoxicity in triplicate)), 435028 (Confirmation (IDE inhibitors in triplicate)) …; type: functional; conditions: HEK293
Insulin-degrading enzyme = target: T1, Insulin-degrading enzyme (Homo sapiens, UniProt P14735); test: Dose Response: Fluorescence polarization-based cell-based high throughput dose response assay for inhibitors of insulin-degrading enzyme (IDE). [Related pubchem assays: 434962 (Primary screen (IDE inhibitors in singlicate)), 449730 (Counterscreen (Cytotoxicity in triplicate)), 435028 (Confirmation (IDE inhibitors in triplicate)), 434984 (Summary …; type: functional
T1 sequence (P14735 whole entry): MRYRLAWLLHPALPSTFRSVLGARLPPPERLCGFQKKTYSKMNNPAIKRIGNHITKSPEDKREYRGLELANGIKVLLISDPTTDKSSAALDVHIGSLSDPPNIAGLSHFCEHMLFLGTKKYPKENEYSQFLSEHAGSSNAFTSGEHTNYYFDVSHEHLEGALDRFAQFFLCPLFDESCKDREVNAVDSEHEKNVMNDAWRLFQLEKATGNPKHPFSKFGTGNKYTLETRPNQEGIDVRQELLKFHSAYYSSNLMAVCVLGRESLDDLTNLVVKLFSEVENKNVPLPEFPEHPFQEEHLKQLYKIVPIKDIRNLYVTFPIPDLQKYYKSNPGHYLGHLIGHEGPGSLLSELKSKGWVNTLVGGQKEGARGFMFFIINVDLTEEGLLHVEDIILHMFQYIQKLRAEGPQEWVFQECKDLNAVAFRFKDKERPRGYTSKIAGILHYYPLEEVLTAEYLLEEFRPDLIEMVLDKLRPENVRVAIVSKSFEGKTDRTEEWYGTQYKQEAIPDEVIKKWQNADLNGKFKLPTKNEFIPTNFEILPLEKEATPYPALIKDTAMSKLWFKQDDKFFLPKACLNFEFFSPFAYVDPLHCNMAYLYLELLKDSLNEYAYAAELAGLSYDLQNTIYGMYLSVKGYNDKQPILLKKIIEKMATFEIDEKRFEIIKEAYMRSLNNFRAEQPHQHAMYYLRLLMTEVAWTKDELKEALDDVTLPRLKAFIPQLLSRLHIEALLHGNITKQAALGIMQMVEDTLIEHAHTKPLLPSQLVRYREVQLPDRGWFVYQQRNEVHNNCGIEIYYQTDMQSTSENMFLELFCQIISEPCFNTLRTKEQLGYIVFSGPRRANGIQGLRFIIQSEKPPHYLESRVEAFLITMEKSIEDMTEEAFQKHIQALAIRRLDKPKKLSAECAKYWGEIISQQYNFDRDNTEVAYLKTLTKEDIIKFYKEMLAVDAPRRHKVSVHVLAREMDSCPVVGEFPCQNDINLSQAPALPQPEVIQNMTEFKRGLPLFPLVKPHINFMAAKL

[10] = Luminescence Cell-Based Dose Response HTS to Identify Inhibitors of 5'UTR Stem-Loop Driven Prion Protein mRNA Translation in H4 Neuroglioblastoma Cells. [Related pubchem assays: 1827 (Project Summary), 1813 (Primary HTS)]; type: functional
[11] = target: T2, Luciferin 4-monooxygenase (Photinus pyralis, UniProt P08659); test: inhibition of purified Photinus pyralis luciferase – biochemical, luminescence, dose response (AID 1891)
T2 sequence (P08659 whole entry): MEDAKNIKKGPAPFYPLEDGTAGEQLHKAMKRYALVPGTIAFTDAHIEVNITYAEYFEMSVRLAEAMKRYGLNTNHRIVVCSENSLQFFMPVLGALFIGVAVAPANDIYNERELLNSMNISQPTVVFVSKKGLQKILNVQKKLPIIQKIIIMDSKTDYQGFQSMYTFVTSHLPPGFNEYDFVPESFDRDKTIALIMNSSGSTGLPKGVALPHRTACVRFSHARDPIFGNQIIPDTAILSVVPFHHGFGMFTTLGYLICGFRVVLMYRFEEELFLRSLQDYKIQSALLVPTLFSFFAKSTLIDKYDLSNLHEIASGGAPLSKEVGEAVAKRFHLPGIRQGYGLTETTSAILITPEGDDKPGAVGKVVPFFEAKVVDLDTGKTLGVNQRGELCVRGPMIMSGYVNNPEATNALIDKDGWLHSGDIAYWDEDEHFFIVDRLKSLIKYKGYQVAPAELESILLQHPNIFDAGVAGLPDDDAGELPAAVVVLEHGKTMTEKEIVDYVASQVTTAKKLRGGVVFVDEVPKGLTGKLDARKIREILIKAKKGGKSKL

A-375 = test: proliferation inhibition in MITF-low A375 cells – cell-based, cherry-pick samples, set 2, counter-screen for MITF modulator project, dose response (AID 540335); type: functional; conditions: Homo sapiens
[12] = Luminescence Cell-Based Dose Confirmation HTS to Identify Inhibitors of Platelet Dense Granule Release. [Related pubchem assays: 1663 (Primary HTS), 1678 (Summary of Project)]; type: functional
[13] = target: T3, Heat shock factor protein 1 (Mus musculus, UniProt P38532); test: decrease of HSF1-responsive luciferase luminescence – cell-based, NIH3T3, dose retest, confirmation (AID 2382); type: functional;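 note: NIH3T3 fibroblasts with HSF1-driven luciferase reporter stressed by proteasome inhibitor MG132; luminescence from HSF1-driven luciferase expression after 8 hours of MG132 stress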
T3 sequence (P38532 whole entry): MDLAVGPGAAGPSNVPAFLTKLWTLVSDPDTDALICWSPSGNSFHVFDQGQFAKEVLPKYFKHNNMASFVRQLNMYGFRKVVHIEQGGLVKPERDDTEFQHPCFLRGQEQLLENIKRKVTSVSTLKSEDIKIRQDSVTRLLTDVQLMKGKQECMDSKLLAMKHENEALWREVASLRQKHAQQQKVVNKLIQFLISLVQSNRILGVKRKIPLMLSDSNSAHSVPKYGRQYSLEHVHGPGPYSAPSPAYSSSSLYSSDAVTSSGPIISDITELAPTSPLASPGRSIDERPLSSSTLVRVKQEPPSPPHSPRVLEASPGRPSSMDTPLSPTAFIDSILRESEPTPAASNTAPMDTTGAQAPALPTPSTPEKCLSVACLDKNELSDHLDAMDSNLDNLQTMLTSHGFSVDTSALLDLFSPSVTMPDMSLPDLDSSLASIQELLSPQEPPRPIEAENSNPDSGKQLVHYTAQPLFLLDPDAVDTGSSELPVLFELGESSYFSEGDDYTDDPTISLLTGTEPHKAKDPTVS

[14] = alpha-synuclein stem-loop translation blockers – luminescence, H4 neuroglioblastoma cells, dose confirmation, confirmation (AID 2454); type: functional, cell-based;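 note: H4 neuroglioblastoma cells carrying an alpha-synuclein 5'UTR luciferase reporter; potency for inhibition of the luciferase signal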
[15] = luciferase reporter signal suppression in cells – H4 neuroglioma cells, luminescence, dose response (AID 1990); type: functional, cell-based
[16] = target: T4, Microphthalmia-associated transcription factor (Homo sapiens, UniProt O75030); test: reducers of TRPM1 reporter luminescence, concentration series – cell-based, SK-MEL-5, cherry-picked, set 3, MITF inhibitor project, dose response (AID 493073); type: functional;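 note: SK-MEL-5 melanoma cells with luciferase driven by the MITF target TRPM1 promoter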
T4 sequence (O75030 whole entry): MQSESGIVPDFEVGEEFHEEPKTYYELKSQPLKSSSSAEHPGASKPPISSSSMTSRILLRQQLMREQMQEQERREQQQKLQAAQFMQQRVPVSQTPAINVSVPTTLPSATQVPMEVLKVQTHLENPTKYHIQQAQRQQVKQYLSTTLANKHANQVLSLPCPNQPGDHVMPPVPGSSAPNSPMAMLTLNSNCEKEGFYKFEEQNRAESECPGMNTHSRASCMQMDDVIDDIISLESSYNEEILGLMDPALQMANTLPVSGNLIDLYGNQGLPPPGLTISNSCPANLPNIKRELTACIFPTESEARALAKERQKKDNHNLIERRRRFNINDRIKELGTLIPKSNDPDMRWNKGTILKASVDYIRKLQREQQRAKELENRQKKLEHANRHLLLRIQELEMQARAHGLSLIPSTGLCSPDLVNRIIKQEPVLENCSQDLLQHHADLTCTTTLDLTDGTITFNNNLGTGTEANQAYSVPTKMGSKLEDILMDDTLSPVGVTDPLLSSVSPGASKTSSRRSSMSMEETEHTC

cells = type: functional, cell-based
[17] = target: T2, Luciferin 4-monooxygenase; test: Counter Screen for Luciferase-based Assay Positives. [Related pubchem assays: 620, 618, 411 ]
HT-1080 = test: HT1080 cell viability loss – fluorescence readout (AID 620); type: functional, cell-based; conditions: Homo sapiens
[18] = alpha-synuclein stem-loop luciferase translation blockers – H4 neuroglioma cells, luminescence, confirmation (AID 1988); type: functional, cell-based
[19] = viability of PTEN-deleted HCT116 cells – cell-based, HCT116 PTEN knockout, dose response (AID 1047); type: functional;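 note: HCT116 colon tumor cells with PTEN knocked out; cells exposed to compound for 60 hours before readout; potency for loss of cell viability measured by luminescence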
[20] = viability of HCT116 lacking mutant beta-catenin – cell-based, human colon tumor, dose response (AID 1045); type: functional;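 note: HCT116 colon tumor cells with beta catenin knocked out; cells exposed to compound for 60 hours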
[21] = target: T5, Alkaline phosphatase, tissue-nonspecific isozyme (Homo sapiens, UniProt P05186)
T5 sequence (P05186 whole entry): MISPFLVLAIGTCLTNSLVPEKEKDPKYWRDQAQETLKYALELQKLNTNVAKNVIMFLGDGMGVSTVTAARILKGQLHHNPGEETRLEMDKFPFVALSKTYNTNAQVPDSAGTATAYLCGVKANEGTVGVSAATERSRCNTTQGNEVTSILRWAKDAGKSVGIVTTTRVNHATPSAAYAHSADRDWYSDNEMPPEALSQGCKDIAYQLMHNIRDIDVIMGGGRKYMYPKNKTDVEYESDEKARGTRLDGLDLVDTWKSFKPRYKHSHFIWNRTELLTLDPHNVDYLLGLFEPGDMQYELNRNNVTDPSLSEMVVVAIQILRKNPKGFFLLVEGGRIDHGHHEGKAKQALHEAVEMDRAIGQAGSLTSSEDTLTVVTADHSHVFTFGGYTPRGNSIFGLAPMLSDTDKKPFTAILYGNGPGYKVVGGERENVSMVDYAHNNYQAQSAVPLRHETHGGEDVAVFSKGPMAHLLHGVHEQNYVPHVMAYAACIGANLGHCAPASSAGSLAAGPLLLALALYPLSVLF

Chain of Melanin-concentrating hormone receptor 1 (Q99705 whole entry): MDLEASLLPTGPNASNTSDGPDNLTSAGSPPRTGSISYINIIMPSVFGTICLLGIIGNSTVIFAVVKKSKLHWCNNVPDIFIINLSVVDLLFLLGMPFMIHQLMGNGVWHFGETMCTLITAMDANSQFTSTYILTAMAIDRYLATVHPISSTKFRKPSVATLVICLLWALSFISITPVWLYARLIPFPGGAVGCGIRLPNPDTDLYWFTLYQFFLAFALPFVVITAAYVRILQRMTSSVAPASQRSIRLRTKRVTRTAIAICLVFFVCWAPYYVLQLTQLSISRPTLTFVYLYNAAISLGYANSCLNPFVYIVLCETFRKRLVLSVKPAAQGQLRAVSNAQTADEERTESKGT

## FC(F)(F)c1cccc(C[n+]2c3n(c4ccc(C(F)(F)F)cc42)CCCCC3)c1
[1]
  IC50: 13 µM (not active)
[2]
  IC50: 2.17 µM (active)
[3]
  IC50: 3.21 µM (active)
[4]
  IC50: 19.7 µM (not active)

## CCOC(=O)c1oc2c(C)c(O)ccc2c(=O)c1-c1nncn1-c1ccccc1
[5]
  EC50: > 50 µM (not active)

## CCOc1ccc(NC(S)=NN=C(S)Nc2cccc(C(F)(F)F)c2)cc1
[6]
  EC50: 24.4 µM (active)
HEK293
  IC50: > 35.4 µM (not active)
Streptococcus
  EC50: > 150 µM (not active)

## O=C(O)C1C2CCC(O2)C1C(=O)NC1CCCCC1 (stereo not drawn)
[7]
  IC50: 3.03 µM (active)
[8]
  IC50: 3.7 µM (active)

## CCOC(=O)c1c(C)n(C)c2ccc(O)c(CN(C)C)c12
Protein Rev
  IC50: > 79.4 µM (not active)

## CC(Oc1ccc2c3c(c(=O)oc2c1)CCCC3)C(=O)NCc1ccncc1 (stereo not drawn)
[9]
  IC50: 36.4 µM (not active)
Insulin-degrading enzyme
  IC50: > 55.9 µM (not active)

## O=C(/C=C\Nc1ccc2c(c1)OCO2)c1ccccn1
[10]
  EC50: < 0.1 µM (active)
[11]
  EC50: 0.634 µM (active)
A-375
  AC50: 41 µM (active)
[12]
  EC50: 3.3 µM (active)
[13]
  EC50: 4.62 µM (active)
[14]
  EC50: 0.874 µM (active)
[15]
  EC50: 0.649 µM (active)
[16]
  AC50: 2.08 µM (active)
cells
  EC50: > 12 µM (inconclusive)
[17]
  EC50: 23.4 µM (active)
HT-1080
  EC50: > 50 µM (not active)
[18]
  EC50: 0.234 µM (active)

## Cn1c(N/N=C2\CCCc3ccccc32)nc2c1c(=O)n(Cc1ccc(F)cc1)c(=O)n2C
[19]
  EC50: 9.86 µM (active)
[20]
  EC50: 10.2 µM (active)
[21]
  EC50: 18.8 µM (active)

Source: ChEMBL document CHEMBL1201862, “PubChem BioAssay data set” (2004)
